Counter-ions that a name gives are not always drawn.
Experiments:
human Src = human Src (Homo sapiens, UniProt P12931); test: C1: c-Src filter assay; type: biochemical; conditions: 5 ng human Src, 1.0 μM unlabeled ATP, poly(Glu,Tyr) 4:1, 25° C., 10 minutes; read-out: C1: c-SRC filter pIC50 (converted)
Description: The in vitro inhibition of c-Src kinase was assessed using the glass-fiber filter technology as described by Davies, S. P. et al., Biochem J. (2000), 351; p. 95-105.
In the glass-fiber filter technology the activity of the kinase is measured using an appropriate substrate that is incubated with the aforementioned kinase protein in the presence of (^33P) radiolabeled ATP. (^33P) Phosporylation of the substrate is subsequently measured as radioactivity bound on a glassfiber-filter.
In an alternative filter based assay the final kinase activity was assessed using a phosphostorage screen instead of scintilation counting.
In this assay the Src kinase reaction is performed at 25° C. for 10 minutes in a 96-well microtiterplate. The 25 μl reaction volume contains 8 mM MOPS pH 7.0, 20 mM Mg-acetate, 0.2 mM Na2EDTA, 0.5 mM MnCl2, 1.0 μM unlabeled ATP, 0.2 μCi AT^33P, 20 ng poly(Glu,Tyr) 4:1 and 5 ng human Src.
The reaction is stopped by adding 5 μl of a 3% phosphoric acid solution. 5 μl of the reaction mixture is then spotted onto a Filtermat A filter (Wallac) and washed 3 times for 5 min. in 75 mM phosphoric acid and 1 time for 5 min. in methanol prior to drying and quantification on the Typhoon (Amersham) using a phosphostorage screen.

human Fyn = human Fyn (Homo sapiens, UniProt P06241); test: C2: Fyn kinase assay; type: biochemical; conditions: 5 ng human Fyn, 1.0 μM unlabeled ATP, poly(Glu,Tyr) 4:1, 25° C., 10 minutes; read-out: C2: Fyn kinase pIC50 (converted)
Sequence of human Fyn (P06241 whole entry): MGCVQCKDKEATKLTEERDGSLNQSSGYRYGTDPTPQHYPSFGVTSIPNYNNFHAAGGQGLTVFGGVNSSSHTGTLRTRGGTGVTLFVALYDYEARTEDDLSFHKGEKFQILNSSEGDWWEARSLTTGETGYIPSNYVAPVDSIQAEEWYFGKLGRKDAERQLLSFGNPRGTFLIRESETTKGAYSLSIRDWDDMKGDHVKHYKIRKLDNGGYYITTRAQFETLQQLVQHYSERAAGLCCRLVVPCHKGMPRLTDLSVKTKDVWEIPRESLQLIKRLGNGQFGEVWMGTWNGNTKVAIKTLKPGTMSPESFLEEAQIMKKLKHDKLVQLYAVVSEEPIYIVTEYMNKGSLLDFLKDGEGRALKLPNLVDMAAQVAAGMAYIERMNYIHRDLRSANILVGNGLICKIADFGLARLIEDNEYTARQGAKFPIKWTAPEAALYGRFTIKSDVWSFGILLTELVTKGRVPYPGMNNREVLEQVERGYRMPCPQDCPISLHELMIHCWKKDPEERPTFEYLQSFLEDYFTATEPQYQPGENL
Description: In this assay the Fyn kinase reaction is performed at 25° C. for 10 minutes in a 96-well microtiterplate. The 25 μl reaction volume contains 8 mM MOPS pH 7.0, 20 mM Mg-acetate, 0.2 mM Na2EDTA, 0.5 mM MnCl2, 1.0 μM unlabeled ATP, 0.2 μCi AT^33P, 20 ng poly(Glu,Tyr) 4:1 and 5 ng human Fyn.
The reaction is stopped by adding 5 μl of a 3% phosphoric acid solution. 5 μl of the reaction mixture is then spotted onto a Filtermat A filter (Wallac) and washed 3 times for 5 min. in 75 mM phosphoric acid and 1 time for 5 min. in methanol prior to drying and scintillation counting.

Sequence of human Src (P12931 whole entry): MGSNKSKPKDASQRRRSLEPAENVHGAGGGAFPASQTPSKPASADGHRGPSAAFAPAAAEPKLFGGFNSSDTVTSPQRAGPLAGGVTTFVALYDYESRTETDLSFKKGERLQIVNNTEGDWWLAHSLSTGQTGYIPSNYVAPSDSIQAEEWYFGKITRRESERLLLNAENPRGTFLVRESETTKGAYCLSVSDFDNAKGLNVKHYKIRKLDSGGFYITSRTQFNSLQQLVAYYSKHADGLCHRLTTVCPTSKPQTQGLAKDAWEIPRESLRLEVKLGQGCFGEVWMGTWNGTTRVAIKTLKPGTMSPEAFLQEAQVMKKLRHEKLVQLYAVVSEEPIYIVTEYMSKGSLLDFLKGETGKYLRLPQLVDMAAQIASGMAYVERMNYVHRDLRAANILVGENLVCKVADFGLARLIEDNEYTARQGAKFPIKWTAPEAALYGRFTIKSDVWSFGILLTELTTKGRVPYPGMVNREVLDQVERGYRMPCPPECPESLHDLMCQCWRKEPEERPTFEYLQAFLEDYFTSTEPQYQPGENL

melting point [°C] | IC50 (human Src) [nM] | IC50 (human Fyn) [nM] | SMILES
224 | – | – | Brc1cc2c(c3c1OCO3)Nc1ncnc3cc(OCCCN4CCCC4)c(cc13)OCCCCCNC2 (as salt: HCl) [Compound B27]
244 | – | – | CN1CCN(CCCOc2cc3ncnc4c3cc2OCCCCCNCc2cc(Br)c3c(c2N4)OCO3)CC1 (as salt: HCl) [Compound B28]
210 to 213 | > 10000 | < 1000 | CN1CCCCCOc2cc3c(ncnc3cc2OCCCNC(=O)OC(C)(C)C)Nc2c(ccc3c2OCO3)C1 [Compound A56]
– | 295 | 3.63 | CN1CCCCCOc2cc3c(ncnc3cc2OCCCN2CCN(CCO)CC2)Nc2c(ccc3c2OCO3)C1 [Compound B13]
– | 562 | 0.174 | CN(CCO)CCCOc1cc2ncnc3c2cc1OCCCCCN(C)Cc1ccc2c(c1N3)OCO2 [Compound B15]
– | 2290 | < 1000 | CN1CCCCCOc2cc3c(ncnc3cc2OCCCNC(=O)CCS(C)(=O)=O)Nc2c(ccc3c2OCO3)C1 [Compound B16]
– | > 10000 | 40.7 | COc1cc2ncnc3c2cc1OCCCCCNCc1cc(Oc2ccc(C)nc2)c2c(c1N3)OCO2 [Compound B17]
– | 468 | < 1 | CN1CCCCCOc2cc3c(ncnc3cc2OCCCN2CCOCC2)Nc2c(ccc3c2OCO3)C1 [Compound B18]
– | 617 | 1.23 | CN1CCCCCOc2cc3c(ncnc3cc2OCCCN2CCCCC2)Nc2c(ccc3c2OCO3)C1 [Compound B19]
– | 575 | 0.0575 | CN1CCCCCOc2cc3c(ncnc3cc2OCCCN2CCCC2)Nc2c(ccc3c2OCO3)C1 [Compound B21]
– | 1290 | > 1000 | CN1CCC(COc2cc3ncnc4c3cc2OCCCCCN(C)Cc2ccc3c(c2N4)OCO3)CC1 [Compound B22]
– | 708 | < 1000 | CN1CCCCCOc2cc3c(ncnc3cc2OCCCN2CCS(=O)(=O)CC2)Nc2c(ccc3c2OCO3)C1 [Compound B23]
– | 676 | < 1000 | CN1CCCCCOc2cc3c(ncnc3cc2OC[C@@H](O)CN2CCS(=O)(=O)CC2)Nc2c(ccc3c2OCO3)C1 [Compound B24]
– | 1410 | 5.25 | CN1CCCCCOc2cc3c(ncnc3cc2OC[C@H](O)CN2CCS(=O)(=O)CC2)Nc2c(ccc3c2OCO3)C1 [Compound B25]
– | 2630 | < 1 | COCCOCCOc1cc2ncnc3c2cc1OCCCCCN(C)Cc1ccc2c(c1N3)OCO2 [Compound B31]
– | 427 | < 1000 | CN1CCNCCCOc2cc3c(ncnc3cc2OCCCN2CCOCC2)Nc2c(ccc3c2OCO3)C1 [Compound B34]
– | 631 | 29.5 | COCCNCCCOc1cc2ncnc3c2cc1OCCCNCCN(C)Cc1ccc2c(c1N3)OCO2 [Compound B35]
– | > 10000 | 19.5 | COc1cc2ncnc3c2cc1OCCCCCN(C)Cc1cc(Br)c2c(c1N3)OCO2 [Compound B43]
250 | – | 120 | COc1cc2c3c(ncnc3c1)Nc1c(ccc3c1OCO3)CNCCCCCO2 [Compound B47]
– | 1820 | 5.75 | CN1CCCCCOc2cc3c(ncnc3cc2OCCC2CCN(C(=O)CCS(C)(=O)=O)CC2)Nc2c(ccc3c2OCO3)C1 [Compound B65]
– | 692 | < 1000 | CN1CCCCCOc2cc3c(ncnc3cc2OCCCNCCS(C)(=O)=O)Nc2c(ccc3c2OCO3)C1 [Compound B68]
– | 479 | 6.17 | CN1CCCCCOc2cc3c(ncnc3cc2OCCCNCCO)Nc2c(ccc3c2OCO3)C1 [Compound B69]
– | 776 | 5.01 | COCCNCCCOc1cc2ncnc3c2cc1OCCCCCN(C)Cc1ccc2c(c1N3)OCO2 [Compound B70]
241 | – | – | CN1CCCCCOc2cc3c(ncnc3cc2OCCCNCCO)Nc2c(cc(Br)c3c2OCO3)C1 [Compound B71]

Reference: patent publication US8492377B2, “MTKI quinazoline derivatives” (Janssen Pharmaceutica NV, priority 2006, dated 2013)
